# Earlier results, collected in PubChem BioAssay AID1259409 (Chemical Carcinogenesis Research Information System (CCRIS), 2018).
# Several values for one entry are separate records, joined by “and”; a condition that tells them apart may be missing. Equal entries are not always repeated.
# Test system: rodent chemically induced tumor inhibition, incidence and multiplicity
# Assay: CCRIS tumor inhibitor studies
compound,measurement,setting,value
NCCCC(N)(C(=O)O)C(F)F (centres undefined),"tumour outcome (control, treated, inhibition, significance)","Carcinogen: DIETHYLNITROSAMINE, 55-18-5, Dose [Inhibitor]: 0, 600 MG/KG BW BY INTRAPERITONEAL INJECTION ON DAYS 13, 14 AND 15 OF AGE THEN 4 G/KG DIET FROM 21 TO 161 DAYS OF AGE (S, Route [Inhibitor]: INTRAPERITONEAL, ORAL, Species: MOUSE, Strain/Sex: C3H/MALE, Target Tissue: Type of Lesion: LIVER: ADENOMA, Dose [Carcinogen]: 4 MG/KG IN TRICAPRYLIN ONCE ON DAY 15 OF AGE, Promoter: NONE USED","100%, 100%, 0%, not significant"
same,"tumour outcome (control, treated, inhibition, significance)","Carcinogen: DIETHYLNITROSAMINE, 55-18-5, Dose [Inhibitor]: 0, 1600 MG/KG DIET FOR DURATION OF STUDY BEGINNING 1 WK PRIOR TO CARCINOGEN TREATMENT (STUDY DURATION: 25 WK), Route [Inhibitor]: ORAL, Species: HAMSTER, Strain/Sex: SYRIAN/MALE, Target Tissue: Type of Lesion: LUNG: CARCINOMA, Dose [Carcinogen]: 17.8 MG/KG BW 2/WK FOR 20 WK, Promoter: NONE USED","50%, 41%, 18%, not significant"
same,"tumour outcome (control, treated, inhibition, significance)","Carcinogen: DIETHYLNITROSAMINE, 55-18-5, Dose [Inhibitor]: 0, 1600 MG/KG DIET FOR DURATION OF STUDY BEGINNING 1 WK PRIOR TO CARCINOGEN TREATMENT (STUDY DURATION: 25 WK), Route [Inhibitor]: ORAL, Species: HAMSTER, Strain/Sex: SYRIAN/MALE, Target Tissue: Type of Lesion: TRACHEA: PAPILLOMA, Dose [Carcinogen]: 17.8 MG/KG BW 2/WK FOR 20 WK, Promoter: NONE USED","95%, 83%, 13%, not significant"
same,"tumour outcome (control, treated, inhibition, significance)","Carcinogen: DIETHYLNITROSAMINE, 55-18-5, Dose [Inhibitor]: 0, 3200 MG/KG DIET FOR DURATION OF STUDY BEGINNING 1 WK PRIOR TO CARCINOGEN TREATMENT (STUDY DURATION: 25 WK), Route [Inhibitor]: ORAL, Species: HAMSTER, Strain/Sex: SYRIAN/MALE, Target Tissue: Type of Lesion: LUNG: CARCINOMA, Dose [Carcinogen]: 17.8 MG/KG BW 2/WK FOR 20 WK, Promoter: NONE USED","60%, 47%, 22%, not significant"
same,"tumour outcome (control, treated, inhibition, significance)","Carcinogen: DIETHYLNITROSAMINE, 55-18-5, Dose [Inhibitor]: 0, 3200 MG/KG DIET FOR DURATION OF STUDY BEGINNING 1 WK PRIOR TO CARCINOGEN TREATMENT (STUDY DURATION: 25 WK), Route [Inhibitor]: ORAL, Species: HAMSTER, Strain/Sex: SYRIAN/MALE, Target Tissue: Type of Lesion: TRACHEA: PAPILLOMA, Dose [Carcinogen]: 17.8 MG/KG BW 2/WK FOR 20 WK, Promoter: NONE USED","100%, 95%, 5%, not significant"
same,"tumour outcome (control, treated, inhibition, significance)","Carcinogen: METHYLAZOXYMETHANOL ACETATE, 592-62-1, Dose [Inhibitor]: 0, 0.1% IN DRINKING WATER FOR 25 WK BEGINNING 15 WK POST INITIAL CARCINOGEN DOSE (STUDY DURATION: 40 WK), Route [Inhibitor]: ORAL, Species: RAT, Strain/Sex: F344/MALE, Target Tissue: Type of Lesion: LARGE INTESTINE: ADENOCARCINOMA, Dose [Carcinogen]: 20 MG/KG BW 1/WK FOR 3 WK, Promoter: 1,2-DIMETHYLHYDRAZINE, 540-73-8","16/26 (62%), 11/28 (39%), 37%, not significant"
same,"tumour outcome (control, treated, inhibition, significance)","Carcinogen: METHYLAZOXYMETHANOL ACETATE, 592-62-1, Dose [Inhibitor]: 0, 0.1% IN DRINKING WATER FOR 25 WK BEGINNING 15 WK POST INITIAL CARCINOGEN DOSE (STUDY DURATION: 40 WK), Route [Inhibitor]: ORAL, Species: RAT, Strain/Sex: F344/MALE, Target Tissue: Type of Lesion: SMALL INTESTINE: ADENOCARCINOMA, Dose [Carcinogen]: 20 MG/KG BW 1/WK FOR 3 WK, Promoter: 1,2-DIMETHYLHYDRAZINE, 540-73-8","8/26 (31%), 8/25 (29%), 6%, not significant"
same,"tumour outcome (control, treated, inhibition, significance)","Carcinogen: N-BUTYL-N(4-HYDROXYBUTYL)NITROSAMINE, 3817-11-6, Dose [Inhibitor]: 0, 640 MG/KG DIET FOR 6 MO BEGINNING 1 WK PRIOR TO CARCINOGEN TREATMENT (STUDY DURATION: 6 MO), Route [Inhibitor]: ORAL, Species: MOUSE, Strain/Sex: BDF/MALE, Target Tissue: Type of Lesion: URINARY BLADDER: CARCINOMA, Dose [Carcinogen]: 7.5 MG IN 0.1 ML ETHANOL:WATER (20:80) 1/WK FOR 8 WK, Promoter: NONE USED","27/70 (39%), 21/72 (29%), 26%, not calculated"
same,"tumour outcome (control, treated, inhibition, significance)","Carcinogen: N-BUTYL-N-(4-HYDROXYBUTYL)NITROSAMINE, 3817-11-6, Dose [Inhibitor]: 0, 600 MG/KG DIET BEGINNING 1 WK PRIOR TO CARCINOGEN TREATMENT AND CONTINUING FOR DURATION OF STUDY (STUDY DURATION: 180, Route [Inhibitor]: ORAL, Species: MOUSE, Strain/Sex: BDF/MALE, Target Tissue: Type of Lesion: BLADDER: CARCINOMA, Dose [Carcinogen]: 7.5 MG IN 0.1 ML OF ETHANOL:WATER (20:80) 1/WK FOR 8 WK, Promoter: NONE USED","25/63 (40%), 17/72 (24%), 40%, p<0.05"
same,"tumour outcome (control, treated, inhibition, significance)","Carcinogen: N-BUTYL-N-(4-HYDROXYBUTYL)NITROSAMINE, 3817-11-6, Dose [Inhibitor]: 0, 1200 MG/KG DIET BEGINNING 1 WK PRIOR TO CARCINOGEN TREATMENT AND CONTINUING FOR DURATION OF STUDY (STUDY DURATION: 18, Route [Inhibitor]: ORAL, Species: MOUSE, Strain/Sex: BDF/MALE, Target Tissue: Type of Lesion: BLADDER: CARCINOMA, Dose [Carcinogen]: 7.5 MG IN 0.1 ML OF ETHANOL:WATER (20:80) 1/WK FOR 8 WK, Promoter: NONE USED","28/65 (43%), 14/65 (22%), 49%, p<0.01"
same,"tumour outcome (control, treated, inhibition, significance)","Carcinogen: N-BUTYL-N-(4-HYDROXYBUTYL)NITROSAMINE, 3817-11-6, Dose [Inhibitor]: 0, 1280 MG/KG DIET FOR 6 MO BEGINNING 1 WK PRIOR TO CARCINOGEN TREATMENT (STUDY DURATION: 6 MO), Route [Inhibitor]: ORAL, Species: MOUSE, Strain/Sex: BDF/MALE, Target Tissue: Type of Lesion: URINARY BLADDER: CARCINOMA, Dose [Carcinogen]: 7.5 MG IN 0.1 ML ETHANOL:WATER (20:80) 1/WK FOR 8 WK, Promoter: NONE USED","30/73 (41%), 15/73 (21%), 49%, p<0.01"
same,"tumour outcome (control, treated, inhibition, significance)","Carcinogen: N-BUTYL-N-(4-HYDROXYBUTYL)NITROSOAMINE, 3817-11-6, Dose [Inhibitor]: 0.2% IN DRINKING WATER BEGINNING POST CARCINOGEN DOSE AND CONTINUING FOR 40 WK FOLLOWED BY TAP WATER FOR DURATION OF STU, Route [Inhibitor]: ORAL, Species: RAT, Strain/Sex: F344/MALE, Target Tissue: Type of Lesion: URINARY BLADDER: CARCINOMA, Dose [Carcinogen]: 0.05% IN DRINKING WATER FOR 6 WK, Promoter: NONE USED","19/19 (100%), 16/18 (89%), 11%, not significant and 24/24 (100%), 23/25 (92%), 8%, not significant"
same,"tumour outcome (control, treated, inhibition, significance)","Carcinogen: N-BUTYL-N-(4-HYDROXYBUTYL)NITROSOAMINE, 3817-11-6, Dose [Inhibitor]: 0.2% IN DRINKING WATER BEGINNING POST CARCINOGEN DOSE AND CONTINUING FOR DURATION OF STUDY (STUDY DURATION: 75 WK), Route [Inhibitor]: ORAL, Species: RAT, Strain/Sex: F344/MALE, Target Tissue: Type of Lesion: URINARY BLADDER: CARCINOMA, Dose [Carcinogen]: 0.05% IN DRINKING WATER FOR 6 WK, Promoter: NONE USED","16/25 (64%), 11/24 (46%), 28%, not significant (at 40 wk post carcinogen dose) and 19/19 (100%), 12/19 (63%), 37%, p<0.017 (at 60 wk post carcinogen dose) and 24/24 (100%), 19/20 (95%), 5%, not significant (at 75 wk post carcinogen dose)"
same,"tumour outcome (control, treated, inhibition, significance)","Carcinogen: N-ETHYL-N-NITROSOUREA, 759-73-9, Dose [Inhibitor]: 0, 250 MG/KG DIET FOR DURATION OF STUDY BEGINNING POST CARCINOGEN DOSE (STUDY DURATION: 35 WK), Route [Inhibitor]: ORAL, Species: MOUSE, Strain/Sex: PIM/MALE, Target Tissue: Type of Lesion: LYMPHATIC SYSTEM: LYMPHOMA, Dose [Carcinogen]: 50 MG/KG BW ONCE, Promoter: NONE USED","21/40 (53%), 15/29 (52%), 2%, not significant"
